Measured values as given in patent US20040180417A1, “Secretase/sheddase with asp-ase activity on the beta-site app-cleaving enzyme (bace, asp2, memepsin2)” (priority 2000, published 2004).
Starred links: 1 amine or outer side, 2 acyl side, 3 side chain; linkers in the order of their positions; H or OH if unused. Non-standard residues stand in square brackets, D forms with d. Residues, ends and D or L forms follow the SMILES beside them. *: point of attachment. X1 = CC(N[*:1])C(=O)C(F)(F)C(=O)[*:2]; Cbz = O=C(OCc1ccccc1)*; Boc = CC(C)(C)OC(=O)*; CH2F = FC*

Assays:
BACE secretase/sheddase = BACE secretase/sheddase activity (BACE C-terminal fragments) in Neuro 2a cells; type: cell-based
Procedure: (§1) FIG. 8: [A] Neuro 2a APPSW cells were transiently transfected with cDNA for [BACEF]FG. Cells were labeled with ^35S-Met for 3 hrs in the absence (−, DMSO control) or presence of 100 uM of a substrate based γ-secretase inhibitor (+γ-sec I, DFK-167 Enzyme Systems products). Cell lysates were immunoprecipitaed with FG antibodies, reduced and analyzed by SDS-PAGE on 8% tricine gels. Cell lysates [B] and media [C] were immunoprecipited with antibody APP711-03 and analyzed by SDS-PAGE on 8% tricine gels. [D] Media was immunoprecipited with the 1-40 Aβ antibody and analyzed on a 14% tricine gel. The exposure time was 3 days.
Transfections and biosynthetic analyses—All transfections were done on 2−4×10^5 HK293 cells using Effectene (Qiagen) and a total of 1-1.5 μg of BACE contruct cDNAs subcloned into the vector pIRES2-EGFP. Two days post-transfection the cells were washed and then pulse-incubated for various times with either 200 μCi/ml of [^35S]Met; 400 μCi/ml Na2[^35SO4], [^3H]Leu, [^3H]Arg, [^3H]Ser; or 1 mCi/ml [^3H]palmitate EN) (20). Pulse-chase experiments with [^35S]Met were carried out as previously described (21). Cells were lysed in immunoprecipitation buffer [150 mM NaCl, 50 mM Tris-HCl pH 6.8, 0.5% NP40, 0.5% sodium deoxycholate and a protease inhibitor cocktail (Roche Diagnostics). The lysates and media were then prepared for immunoprecipitations as reported (22). The monoclonal antibodies used were directed against either the FL (Flag-M2; 1:500 dilution; Stratagene) or V5 (1:1000 dilution; Invitrogen) epitopes. Rabbit polyclonal antisera included those directed against aa 1-16 of human Aβ (produced in laboratory, dilution 1:200); anti-β-amyloid, recognizing mostly the C-terminal part of Aβ40 (A8326, dilution 1:200, Sigma); and FCA 18, recognizing all peptides starting with the Asp at the N-terminus of Aβ (23). Immunoprecipitates were resolved on SDS-PAGE (either 8% or 14% tricine gels) and autoradiographed (21). All PC inhibitor proteins were cloned in pcDNA3 (Invitrogen), including those of α1-PDX (8); the preprosegments of furin, PC7 (24), PC5 (25), SKI-1 (26,27); and wild type (α2-M) and furin-site mutated (α2-MG-F) α2-macroglubulin (28).
C-terminal processing of BACE—In order to further characterize the nature of apparent C-terminal cleaved BACE fragments (FIG. 5C), the analysis of [BACEF]FG fragments immunoprecipitated with antiserum to Flag from HK293 cells were repeated. In addition to the 6 kDa fragment noted in FIG. 5C, fragments of 34, 15, and 11 kDa are apparent (FIG. 7). […] In addition, the intensity of the 11 and 6 kDa bands appear to diminish. It was expected that some of these BACE fragments would be disulfide linked, since it is known that the six Cys residues in the ectodomain form three intramolecular disulfide linkages (Cys^216-Cys^420, Cys^278-Cys^443, Cys^330-Cys^380) (41). The 34, 15, 11 and 6 kDa BACE fragments are also apparent when [BACEF]FG is expressed in Neuro 2a cells (FIG. 8). The relative levels of the 11 kDa fragment compared to the other cleaved fragments of BACE appear lower in Neuro 2a compared to HK293 cells. In any case, the sites of ectodomain cleavage are apparently the same in the two cell types. […] The significance of an apparent reduction in the level of the 6 kDa BACE fragment is unknown.

γ-secretase = assay: βAPP processing (Aβ, C99) in Neuro 2a APPSW cells; type: cell-based; settings: 100 uM inhibitor, 3 hrs
Procedure: as §1
C-terminal processing of BACE—In order to further characterize the nature of apparent C-terminal cleaved BACE fragments (FIG. 5C), the analysis of [BACEF]FG fragments immunoprecipitated with antiserum to Flag from HK293 cells were repeated. In addition to the 6 kDa fragment noted in FIG. 5C, fragments of 34, 15, and 11 kDa are apparent (FIG. 7). […] In addition, the intensity of the 11 and 6 kDa bands appear to diminish. It was expected that some of these BACE fragments would be disulfide linked, since it is known that the six Cys residues in the ectodomain form three intramolecular disulfide linkages (Cys^216-Cys^420, Cys^278-Cys^443, Cys^330-Cys^380) (41). The 34, 15, 11 and 6 kDa BACE fragments are also apparent when [BACEF]FG is expressed in Neuro 2a cells (FIG. 8). […]

[1] = test system: proBACE processing by PC-like enzyme; assay: proBACE processing in HK293 cells co-expressing [BACEF]FG/V5 and PC-inhibitors (pulse-chase, immunoprecipitation, SDS-PAGE); type: cell-based, human; settings: 15 min [35S]Met pulse, chase 1 h or 2h; FG epitope; α1-PDX co-transfected or BFA present
Procedure: FIG. 1: HK293 cells were transiently co-transfected with either ([BACEF]FG/V5+BDNF) [control, CTL] (A,C) or ([BACEF]FG/V5+α1-PDX) (B,D) cDNAs. Two days post-transfections the cells were pulse-labeled in the absence or presence of […] BFA for 15 min with [^35S]Met and then chased for 1 or 2h. Cell lysates were immunoprecipitated with either the FG or V5 mAbs and analysed by SDS-PAGE on 8% tricine gels. The migration position of the 53 kDa molecular mass standard and those of proBACE (pBACE) and BACE are emphasized.
FIG. 2: [A] HK293 cells were transiently co-transfected with cDNAs coding for either ([BACEF]FG/V5+BDNF) [control, CTL], ([BACEF-R45A]FG/V5+BDNF) or ([BACEF-R42A]FG/V5+BDNF) or ([BACEF]FG/V5+either α1-PDX, the prosegments of furin, PC5, PC7, SKI-1, furin-mutated (α2M-F) or wild type (α2M) α2-macroglobulin. The cells were pulse-labeled for 20 min with [^35S]Met and then chased for 90 min. Cell lysates were immunoprecipitated with the FG mAb and analysed by SDS-PAGE on 8% tricine gels. [B] HK293 cells were transiently co-transfected with cDNAs coding for either ([BACEF]FG/V5+BDNF) [CTL], ([BACEF]FG/V5+furin) or ([BACEF]FG/V5+α1-PDX). The cells were then pulse-labeled for 2h with Na2[^35SO4]. Cell lysates were immunoprecipitated with the FG or V5 mAbs and analysed by SDS-PAGE on 8% tricine gels. […]

proBACE = assay: Exit of proBACE from the ER in HK293 cells (3h [35S]Met pulse); type: cell-based, human; settings: 90 μM BFA or 250 nM bafilomycin, 37° C.
Procedure: FIG. 5: HK293 cells were transiently transfected with cDNAs coding for either [A,B] (BDNF+βAPPSW) [CTL] or ([BACEF]FG+βAPPSW), [C] [BACEF]FG or [BACES]FG. The cells were pulse-labeled for 3h with [^35S]Met at either 37° C. in the absence or presence of 90 μM BFA or 250 nM bafilomycin or at 20° C. Cell lysates were immunoprecipitated with either [A] the FG mAb or [B] the 1-16 Aβ antibody, and analysed by SDS-PAGE on 8% tricine gels. [C] FG antibody, and analysed by SDS-PAGE on 8% tricine gels. The arrowhead point to an ˜6 kDa intracellular stub of BACEF.
Transfections and biosynthetic analyses—All transfections were done on 2−4×10^5 HK293 cells using Effectene (Qiagen) and a total of 1-1.5 μg of BACE contruct cDNAs subcloned into the vector pIRES2-EGFP. Two days post-transfection the cells were washed and then pulse-incubated for various times with either 200 μCi/ml of [^35S]Met; 400 μCi/ml Na2[^35SO4], [^3H]Leu, [^3H]Arg, [^3H]Ser; or 1 mCi/ml [^3H]palmitate EN) (20). Pulse-chase experiments with [^35S]Met were carried out as previously described (21). Cells were lysed in immunoprecipitation buffer [150 mM NaCl, 50 mM Tris-HCl pH 6.8, 0.5% NP40, 0.5% sodium deoxycholate and a protease inhibitor cocktail (Roche Diagnostics). The lysates and media were then prepared for immunoprecipitations as reported (22). […]

BACE = target: T1, BACE (Mus musculus, UniProt P56818); assay: In vitro β-secretase activity on a 20 aa synthetic βAPPSW peptide (RP-HPLC); type: biochemical
T1 construct: TDEST454; FLAG (DYKDDDDK), inserted just after the signal peptide cleavage site (after Ala19) (N); made in house; host or cells: HK293 cells, transiently transfected; 10-20 fold-concentrated medium

[proBACES]FG/V5 = In vitro PC-mediated processing of proBACES (Western blot); type: biochemical, mouse; settings: equivalent hydrolytic activities of PCs, 1-4 hours incubation

T1 sequence (P56818 46-457 limits assumed): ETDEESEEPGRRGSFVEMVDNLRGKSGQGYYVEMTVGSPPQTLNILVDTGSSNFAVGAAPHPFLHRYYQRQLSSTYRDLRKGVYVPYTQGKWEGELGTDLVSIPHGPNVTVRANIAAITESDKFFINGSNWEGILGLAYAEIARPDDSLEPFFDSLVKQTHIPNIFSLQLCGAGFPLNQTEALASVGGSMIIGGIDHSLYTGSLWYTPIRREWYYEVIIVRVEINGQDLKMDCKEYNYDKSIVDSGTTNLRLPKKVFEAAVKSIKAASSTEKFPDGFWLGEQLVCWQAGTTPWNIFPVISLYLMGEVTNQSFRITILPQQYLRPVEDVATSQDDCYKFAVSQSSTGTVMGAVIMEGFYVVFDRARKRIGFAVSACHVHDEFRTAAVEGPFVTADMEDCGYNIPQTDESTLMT

CCC(C)C(NC(=O)C(NC(=O)OC(C)(C)C)C(C)C)C(=O)NC(C)C(=O)C(F)(F)C(=O)NC(C(=O)NC(C(=O)OC)C(C)CC)C(C)C (stereo not shown) (Boc-VI[X1]VI-OMe; configuration not given here)
levels of BACE fragments (34, 15 and 11 kDa) (BACE secretase/sheddase; Neuro 2a APPSW cells transfected with [BACEF]FG, 100 uM inhibitor, 3 hrs): largely unchanged | inhibition of BACE secretase/sheddase activity (BACE secretase/sheddase; Neuro 2a cells): does not inhibit | cellular C99 levels (γ-secretase; cell lysates): elevates | Aβ formation (γ-secretase; media): completely inhibits

C[C@H]1CCC/C=C/[C@@H]2C[C@H](O)C[C@H]2[C@H](O)/C=C/C(=O)O1 [BFA, brefeldin A]
72 kDa proBACE form [1]: not apparent | escape of 66 kDa proBACE from the ER (proBACE): prevented

CNC(=O)[C@H](Cc1c[nH]c2ccccc12)NC(=O)[C@@H](CC(=O)NO)CC(C)C [GM6001]
inhibition of BACE secretase/sheddase activity (BACE secretase/sheddase; Neuro 2a cells): did not inhibit

CC(C)C[C@H](CC(=O)NO)C(=O)N[C@@H](Cc1ccc2ccccc2c1)C(=O)N[C@@H](C)C(=O)NCCN [TAPI-1]
inhibition of BACE secretase/sheddase activity (BACE secretase/sheddase; Neuro 2a cells): did not inhibit

COC(=O)C[C@H](NC(=O)[C@H](C)NC(=O)[C@@H](NC(=O)OCc1ccccc1)C(C)C)C(=O)CF [Z-Val-Ala-Asp(OMe)-CH2F] (Cbz-Val-Ala-Asp(OMe)-CH2F)
effect on BACE secretase/sheddase activity (BACE secretase/sheddase; Neuro 2a cells, 100 uM): had no effect

CO/C1=C\C(C)=C\[C@@H](C)[C@@H](O)[C@@H](C)C/C(C)=C/C=C/[C@H](OC)[C@@H]([C@@H](C)[C@@H](O)[C@H](C)[C@@]2(O)C[C@@H](O)[C@H](C)[C@@H](C(C)C)O2)OC1=O [bafilomycin]
escape of 66 kDa proBACE from the ER (proBACE): retarding effect

THLGIRLPLRSGLAGPPLGLRLPR [proBACE 22-45]
inhibition of the Swedish peptide substrate cleavage (BACE; 20 μM peptide pre-incubated with active BACE, substrate at 10 μM): 20%

furin
time to completely process proBACE into BACE ([proBACES]FG/V5): ≤ 2 h | increase in the level of BACE activity (BACE; pre-incubation of BACES-containing media with furin, four separate experiments): 50±3%
